In PMC5501099 (Malaria Journal, 2017):

Legend:
[1] = single dose of 800 µg/kg, literature parameters of American healthy volunteers; cited from earlier work
Plasmodium vivax [2] = assay: Effect of ivermectin on Plasmodium vivax sporogony in Anopheles minimus; type: in vivo; conditions: An. minimus
Experimental: (§1) Mosquitoes reared in Bangkok were transported to a field laboratory at the Mae Sot Malaria Medical Clinic in Mae Sot, Tak Province. Plasmodium vivax-infected blood was collected from malaria-infected patients reporting to malaria clinics operated by the Thailand Ministry of Public Health in Tak Province (protocol WRAIR#1949A). Patient plasma was removed and replaced by centrifuging blood samples at 3000 rpm for 5 min, plasma removed and blood washed with RPMI twice, and malaria-naïve AB+ serum was added at a 50:50 ratio [30]. One millilitre of blood was fed to each group of 100 mosquitoes in 0.5-l cardboard containers and unfed mosquitoes were removed. Mosquitoes were maintained on 10% sucrose ad libitum at the Mae Sot field insectary (25 ± 1 °C and 70 ± 10% relative humidity, light 12 h:12 h dark photoperiod). Once infected with P. vivax, blood-fed mosquitoes were securely transported back to Bangkok and maintained in a separate insectary (25 ± 1 °C and 70 ± 10% relative humidity, light 12 h:12 h dark photoperiod).
Unfed mosquitoes were removed from the feeding containers after each blood meal. Mosquitoes from the DPI 0 and DPI −3 feeding schedules were dissected 7 days post parasite ingestion to enumerate oocysts. Midguts were dissected with minuten pins into saline on a microscope slide and stained with 0.4% mercurochrome and viewed at 40× magnification with a compound microscope to determine oocyst prevalence and intensity. Approximately 25 mosquitoes were dissected from each control and treatment group at each dissection time point. Dissectors were blinded to treatment groups. Due to lack of initial mosquito blood feeding and mosquitoes lost to experimental mortality and oocyst dissections at day 7 post parasite feeding, not enough mosquitoes remained at day 14 post parasite feeding to determine sporozoite prevalence for the DPI −3 and 0 experiments. Mosquitoes from the DPI 6 and 9 experiments were dissected 14 days post parasite ingestion to determine sporozoite prevalence. […]
A non-linear mixed effects model with probit analysis was used to calculate LC50, LC25 and LC5 values with Statistical Analysis Software (SAS Institute Inc, Cary, NC, USA) as described previously. Hazard ratios for mosquito mortality at day 7 post blood meal were calculated using Poisson regression analysis with STATA version 12.1 (StataCorp LLC, College Station, TX, USA). […] To determine if P. vivax infection altered mosquito survivorship post-ivermectin ingestion survival data were analysed by the Mantel–Cox method. The Fishers Exact, Mann–Whitney U, and survival analysis data were analysed with Prism 7 (GraphPad Software Inc, San Diego, CA, USA).

[3] = Population pharmacokinetic model of ivermectin in healthy Thai volunteers; type: in vivo, human; conditions: single oral 200 µg/kg
Experimental: The first-order conditional estimation method with interaction was used throughout model development. Model diagnostics and automation were performed using Xpose version 4.0 [25], Pirana and Pearl-speaks-NONMEM (PsN; version 3.6.0). The objective function value (OFV; calculated by NONMEM as proportional to −2 × loglikelihood of data) was used to discriminate between hierarchical models. A difference between two models (ΔOFV) of >3.84 and >10.83 were considered statistically significant at a P value of <0.05 and <0.001, respectively. Models were assessed using standard goodness-of-fit and simulation-based diagnostics (i.e. numerical and visual predictive checks using 2000 simulations). The robustness of the final model was evaluated by bootstrapping (n = 1000).
Different disposition models (one-, two- and three-compartment models) and absorption models (first-order and transit models) were evaluated to describe the pharmacokinetic structural model of ivermectin. Pharmacokinetic parameters were assumed to be log-normally distributed and inter-individual variability was implemented as exponential functions. […] The influence of other individual covariates including gender, age, haemoglobin, haematocrit, total bilirubin, direct bilirubin, alkaline phosphatase, aspartate aminotransferase, and alanine aminotransferase, serum creatinine, blood urea nitrogen, and albumin level were investigated using a stepwise covariate approach (P value <0.05 and <0.001 for forward and backward addition and deletion, respectively).
There were no observations reported to be below the lower limit of quantification. […] A flexible transit absorption model (n = 2) improved the model fit substantially compared to the first-order absorption (∆OFV = −378). […] Implementing body weight as a covariate in the model also allowed for translation and interpretation to other study populations.

Plasmodium vivax [4] = assay: Effect of ivermectin on Plasmodium vivax sporogony in Anopheles dirus; type: in vivo; conditions: An. dirus; for P. vivax oocyst prevalence reduced by: dissected day 7
Experimental: as §1
Unfed mosquitoes were removed from the feeding containers after each blood meal. Mosquitoes from the DPI 0 and DPI −3 feeding schedules were dissected 7 days post parasite ingestion to enumerate oocysts. Midguts were dissected with minuten pins into saline on a microscope slide and stained with 0.4% mercurochrome and viewed at 40× magnification with a compound microscope to determine oocyst prevalence and intensity. Approximately 25 mosquitoes were dissected from each control and treatment group at each dissection time point. Dissectors were blinded to treatment groups. Due to lack of initial mosquito blood feeding and mosquitoes lost to experimental mortality and oocyst dissections at day 7 post parasite feeding, not enough mosquitoes remained at day 14 post parasite feeding to determine sporozoite prevalence for the DPI −3 and 0 experiments. Mosquitoes from the DPI 6 and 9 experiments were dissected 14 days post parasite ingestion to determine sporozoite prevalence. Salivary glands were dissected with minuten pins into saline on a microscope slide and viewed at 40× magnification to determine sporozoite prevalence.
A non-linear mixed effects model with probit analysis was used to calculate LC50, LC25 and LC5 values with Statistical Analysis Software (SAS Institute Inc, Cary, NC, USA) as described previously. Hazard ratios for mosquito mortality at day 7 post blood meal were calculated using Poisson regression analysis with STATA version 12.1 (StataCorp LLC, College Station, TX, USA). Oocyst and sporozoite prevalence (i.e. proportion of infected mosquitoes) was compared by Fishers Exact test. Oocyst intensity (i.e. number of oocysts per infected mosquito) was compared by the Mann–Whitney U test. To determine if P. vivax infection altered mosquito survivorship post-ivermectin ingestion survival data were analysed by the Mantel–Cox method. The Fishers Exact, Mann–Whitney U, and survival analysis data were analysed with Prism 7 (GraphPad Software Inc, San Diego, CA, USA).

An. dirus = assay: Anticoagulant effects on mosquito survival with ivermectin LC25; type: in vivo, Anopheles dirus; conditions: sodium heparin vs CPDA, 7 days
Experimental: Blood was drawn from a single donor and put directly into 10 ml sodium heparin tubes (NH) (158 USP units, BD Vacutainer, Franklin Lakes, NJ, USA) or 6ml CPDA Vacuette tubes (Greiner Bio-One, Kremsmϋnster, Austria) under protocol (Protocol WRAIR#2079).

P. falciparum = conditions: cited from earlier work
An. gambiae [5] = conditions: ivermectin MDAs in Senegal at 150 µg/kg, for up to 6 days post MDA; cited from earlier work
An. gambiae [6] = tested on: An. gambiae; parameters: method as in PMID 20540931; conditions: cited from earlier work
[7] = parameters: method as in earlier work; conditions: humans, n = 4; cited from earlier work
[8] = cited from earlier work
[9] = 23 healthy Thai volunteers, plasma data of trial [24]
[10] = post hoc estimate, median (interquartile range)
[11] = ivermectin LC5 at DPI −3, not significant

Substance: ivermectin
- Simulated average peak concentration [1]: 108.1 ng/mL
- P. vivax oocyst prevalence reduced by (Plasmodium vivax [2]; ivermectin LC5 (6.7 ng/ml) co-ingested at DPI 0): 31.3%
- P. vivax mean oocyst intensity reduced by (Plasmodium vivax [2]; ivermectin LC5 at DPI 0): 35.3%
- P. vivax oocyst prevalence reduced by (Plasmodium vivax [2]; ivermectin LC25 (11.3 ng/ml) co-ingested at DPI 0): 58.8%
- P. vivax mean oocyst intensity reduced by (Plasmodium vivax [2]; ivermectin LC25 at DPI 0, P = 0.1018): 28.5%
- MTT mean transit absorption time, population estimate (%RSE) [3, 9]: 0.496 (17.1) h
- ka absorption rate constant, population estimate (%RSE) [3, 9]: 0.317 (3.97) h^−1
- IIV of CL/F (%RSE) ([3]; healthy Thai volunteers): 23.1 (25.2) %CV
- IIV of F relative bioavailability (%RSE) ([3]; healthy Thai volunteers): 10.7 (42.9) %CV
- IIV of MTT (%RSE) ([3]; healthy Thai volunteers): 56.1 (36.2) %CV
- IIV of VP/F (%RSE) ([3]; healthy Thai volunteers): 22.8 (36.0) %CV
- CL/F apparent oral elimination clearance, population estimate (%RSE) ([3]; healthy Thai volunteers, allometric scaling centred on 55 kg): 9.02 (5.49) l/h
- Q/F apparent inter-compartmental clearance, population estimate (%RSE) ([3]; healthy Thai volunteers, centred on 55 kg): 16.2 (5.34) l/h
- AUC0–168 [3, 10]: 1331 (919–1406) ng × h/ml
- Cmax [3, 10]: 45.7 (40.3–46.9) ng/ml
- Terminal half-life [3, 10]: 25.0 (23.7–29.5) h
- Tmax [3, 10]: 4.76 (4.67–5.04) h
- P. vivax oocyst prevalence reduced by (Plasmodium vivax [4]; ivermectin LC5 (22.1 ng/ml) co-ingested at DPI 0): 33.6%
- P. vivax mean oocyst intensity reduced by (Plasmodium vivax [4]; ivermectin LC5 at DPI 0): 24.7%
- P. vivax oocyst intensity increased by (Plasmodium vivax [4]; [11]): 24.2%
- P. vivax oocyst prevalence decreased by (Plasmodium vivax [4]; [11]): 3.9%
- P. vivax oocyst prevalence reduced by (Plasmodium vivax [4]; ivermectin LC25 (38.1 ng/ml) co-ingested at DPI 0): 44.7%
- P. vivax mean oocyst intensity reduced by (Plasmodium vivax [4]; ivermectin LC25 at DPI 0): 51.2%
- P. vivax sporozoite prevalence decreased by (Plasmodium vivax [4]; ivermectin LC25 at DPI 6, dissected day 14, not significant): 4.5%
- P. vivax sporozoite prevalence increased by (Plasmodium vivax [4]; ivermectin LC25 at DPI 9, dissected day 14, not significant): 4.4%
- Effect of anticoagulant type on survivorship of An. dirus that ingested ivermectin (An. dirus): did not alter survivorship
- Effect on P. falciparum oocyst intensity in An. gambiae (P. falciparum; LC25 or LC5 at DPI 0): no effect
- Effect on oocyst prevalence of P. falciparum in An. gambiae (P. falciparum; ivermectin LC5 at DPI −3): reduced oocyst prevalence
- Sporontocidal effect for P. falciparum in An. gambiae (P. falciparum; ivermectin LC25 at DPI 6 and 9): significant sporontocidal effect
- Effect on P. falciparum prevalence in An. gambiae (P. falciparum; ivermectin LC25 ingested concomitantly (DPI 0)): significantly reduced
- An. gambiae 5-day survivorship reduced by (An. gambiae [5]): 43.6%
- An. gambiae 5-day-LC50 (An. gambiae [6]): 0.0224 µg/mL
- Parent compound half-life [7]: 11.8 h
- Safety of repeated administration ([8]; 400 µg/kg every two weeks for 12 weeks, adults, Sri Lanka and Brazil): safe
- Safety and tolerability ([8]; doses up to 2000 µg/kg, healthy volunteers): safe and well tolerated
